# Laboratory results taken from the NIST ThermoML archive (doi:10.1021/je1001544).
# ± gives the expanded uncertainty stated by the source.
# Key:
# [1] = 298.15 K; 101.33 kPa; Liquid; Vibrating tube method
# [2] = refractive index (Na D-line) (dimensionless); settings: 298.15 K; 101.33 kPa; Liquid; Standard Abbe refractometry
Structure (SMILES),mass density [1],refractive index [2]
CCOS(=O)(=O)[O-].CCn1cc[n+](C)c1 [1-ethyl-3-methylimidazolium ethyl sulfate],1237.23 ± 0.43 kg/m3,1.4791 ± 0.00037
CCCCCCCC [octane],698.6 ± 0.18 kg/m3,1.39519 ± 0.00033
CCCCCC [hexane],655.19 ± 0.25 kg/m3,1.37234 ± 0.00037
c1ccccc1 [benzene],873.57 ± 0.1 kg/m3,1.49774 ± 0.00031
CCCCCCCCC [nonane],713.99 ± 0.25 kg/m3,1.40326 ± 0.00037
CCCCCCC [heptane],679.56 ± 0.18 kg/m3,1.38515 ± 0.00033
